Laboratory results reported in patent US7456197B2, “Pyridinium cationic lipids as gene transfer agents” (The Texas A&M University System, priority 2003, dated 2008).

Assay: Critical (phase transition) temperature Tc by differential scanning calorimetry
Assay type: physicochemical
Settings: for Tc (phase transition temperature): lipids 21 and 25, DSC, heating rate 5° C./minute; for Tc (critical temperature), Pure: pure lipid
Protocol: General. Melting points for the diols and the phase transition temperature Tc for the cationic lipids were determined by differential scanning calorimetry (DSC), using a TA-Instruments Q100 DSC, and a heating rate of 5° C./minute. The IR spectra were recorded on a Nicolet Avatar 360 FTIR spectrophotometer in the range 650-4000 cm^−1 using a ZnSe—attenuated total reflectance (ATR) accessory. The compounds were solved in a small amount of solvent (MeOH for the diols, CHCl3 for the lipids), and the resulted solutions were left to evaporate to dryness on the surface of the ZnSe crystals of the ATR accessory. The NMR spectra were recorded at ≈303 K with a Varian Inova spectrometer equipped with a 5 mm indirect detection probe, operating at 500 MHz for ^1H-NMR and at 125 MHz for ^13C-NMR. Chemical shifts are reported as δ values, using TMS as internal standard for proton spectra and the solvent resonance for carbon spectra. Assignments were made based on signal intensity, selective decoupling, COSY (^1H-^1H) and HETCOR (^1H-^13C) sequences. Elemental analyses were performed by combustion, using a Perkin Elmer 2400 Series II CHNS analyser.
Dioleoylphosphatidylethanolamine (DOPE), cholesterol (CHOL), N-(2,3-dioleoyloxypropyl)-N,N,N-trimethylammonium chloride (DOTAP) were commercial products. The purity of the lipids was checked by thin layer chromatography and also by differential scanning calorimetry (DSC), which was also used for determining the critical temperature Tc. For the preparation of the liposomes a protocol optimized for this type of compounds was adopted as follows. The cationic lipid (with or without helper lipid) was dissolved in chloroform/methanol (2/1, v/v) to reach a final concentration of 1 mM for the charged species. From this stock solution 50 μL were aliquoted in a 1 mL tube and the solvent was evaporated in a SpeedVac evaporator, under vacuum, for 1 h. The dried lipid film was prepared by removing the traces of organic solvent in a dessicator, over Drierite®, under vacuum, overnight. The film was hydrated with 500 μL sterile phosphate buffer saline (PBS) the tube was purged with sterile N2, and vortexed for 1 minute. The liposomes were generated by sonicating the tube in a water bath sonicator for 5-30 minutes at 62° C. and at 37° C. for DOTAP. After sonication the preparations were allowed to reach room temperature.
Materials and Methods. Melting points for the diols, acetates and ketals were determined on a Boetius heating plate microscope and are uncorrected. For the cationic lipids 21 and 25 the phase transition temperature Tc was determined by differential scanning calorimetry (DSC), using a TA-Instruments Q100 DSC, and a heating rate of 5° C./minute. The IR spectra were recorded on a Nicolet Avatar 360 FTIR spectrophotometer, in the range 650-4000 cm^−1, using a ZnSe—attenuated total reflectance (ATR) accessory. The compounds were solved in a small amount of solvent (MeOH for the diols, CHCl3 for the esters), the resulted solutions being left to evaporate to dryness on the surface of the ZnSe crystals of the ATR accessory. This technique was imposed by the poor results obtained in transmission mode for some of the compounds, due to the lack of crystallization, hygroscopicity and other problems related with working with KBr pellets. The NMR spectra were recorded at ≈303 K with a Varian Gemini 300BB spectrometer operating at 300 MHz for ^1H and at 75 MHz for ^13C. Chemical shifts are reported as δ values, using TMS as internal standard for proton spectra and the solvent resonance for carbon spectra: 77.00 ppm in CDCl3, 39.50 ppm in DMSO-d6, the line from 123.50 ppm in pyridine-d5, 62.80 ppm in nitromethane-d3, 30.10 ppm in dimethylformamide-d7. Assignments were made based on signal intensity, selective decoupling and COSY (^1H-^1H) and HETCOR (^1H-^13C) sequences. Nitrogen elemental analysis was performed by combustion, mixing the samples with small amounts of quartz sand.

CCCCCCCCCCCCCCCCCC(=O)OCC(COC(=O)CCCCCCCCCCCCCCCCC)[n+]1c(C)cc(C)cc1C.F[B-](F)(F)F [Lipid 25AbS, 1-(1,3-Distearoyloxypropane-2yl)-2,4,6-trimethylpyridinium tetrafluoroborate]
Tc (phase transition temperature): 73 °C

CCCCCCCCCCCCCCCC(=O)OCC(COC(=O)CCCCCCCCCCCCCCC)[n+]1c(-c2ccccc2)cc(-c2ccccc2)cc1-c1ccccc1.[O-][Cl+3]([O-])([O-])[O-] [Lipid 25BaP, 1-(1,3-Dipalmitoyloxypropane-2-yl)-2,4,6-triphenylpyridinium perchlorate]
Tc (phase transition temperature): 125 °C

CCCCCCCCCCCCCCCCCC(=O)OCC(COC(=O)CCCCCCCCCCCCCCCCC)[n+]1c(C)cc(C)cc1C.[O-][Cl+3]([O-])([O-])[O-] [Lipid 25AaS, 1-(1,3-Distearoyloxypropane-2-yl)-2,4,6-trimethylpyridinium perchlorate]
Tc (phase transition temperature): 70 °C

CCCCCCCCCCCCCCCC(=O)OCC(COC(=O)CCCCCCCCCCCCCCC)[n+]1c(C)cc(C)cc1C.[O-][Cl+3]([O-])([O-])[O-] [Lipid 25AaP, 1-(1,3-Dipamitoyloxypropane-2-yl)-2,4,6-trimethylpyridinium perchlorate]
Tc (phase transition temperature): 66 °C

CCCCCCCCCCCCCCCCCC(=O)Oc1ccc(CC[n+]2c(C)cc(C)cc2C)cc1OC(=O)CCCCCCCCCCCCCCCCC.F[P-](F)(F)(F)(F)F [Lipid 7ASte, 1-(3,4-distearoyloxyphenylethyl)-2,4,6-trimethylpyridinium hexafluorophosphate]
Tc (critical temperature), Pure: 138.8 °C
Tc (critical temperature), With cholesterol (1:1 molar ratio): 123.9 °C

CCCCCCCCCCCCCCCC(=O)OCC(C[n+]1c(-c2ccccc2)cc(-c2ccccc2)cc1-c1ccccc1)OC(=O)CCCCCCCCCCCCCCC.[O-][Cl+3]([O-])([O-])[O-] (centres unmarked) [Lipid 21BaP, 1-(2,3-Dipalmitoyloxypropyl)-2,4,6-triphenylpyridinium perchlorate]
Tc (phase transition temperature): 134 °C

CCCCCCCCCCCCCCCC(=O)OCC(C[n+]1c(C)cc(C)cc1C)OC(=O)CCCCCCCCCCCCCCC.F[P-](F)(F)(F)(F)F (centres unmarked) [Lipid 3APal, 1-(2,3-dipamitoyloxypropyl)-2,4,6-trimethylpyridinium hexafluorophosphate]
Tc (critical temperature), Pure: 123.5 °C
Tc (critical temperature), With cholesterol (1:1 molar ratio): 114.0 °C

CCCCCCCCCCCCCCCC(=O)Oc1ccc(CC[n+]2c(C)cc(C)cc2C)cc1OC(=O)CCCCCCCCCCCCCCC.F[P-](F)(F)(F)(F)F [Lipid 7APal, 1-(3,4-dipalmitoyloxyphenylethyl)-2,4,6-trimethylpyridinium hexafluorophosphate]
Tc (critical temperature), Pure: 140.0 °C
Tc (critical temperature), With cholesterol (1:1 molar ratio): 124.1 °C

CCCCCCCCCCCCCC(=O)Oc1ccc(CC[n+]2c(C)cc(C)cc2C)cc1OC(=O)CCCCCCCCCCCCC.F[P-](F)(F)(F)(F)F [Lipid 7AMyr, 1-(3,4-dimyristoyloxyphenylethyl)-2,4,6-trimethylpyridinium hexafluorophosphate]
Tc (critical temperature), Pure: 141.2 °C
Tc (critical temperature), With cholesterol (1:1 molar ratio): 125.8 °C

CCCCCCCCCCCCCCCC(=O)OCC(C[n+]1c(C)cc(C)cc1C)OC(=O)CCCCCCCCCCCCCCC.F[B-](F)(F)F (centres unmarked) [Lipid 21AbP, 1-(2,3-Dipamitoyloxypropyl)-2,4,6-trimethylpyridinium tetrafluoroborate]
Tc (phase transition temperature): 100 °C

CCCCCCCC/C=C\CCCCCCCC(=O)OCC(COC(=O)CCCCCCC/C=C\CCCCCCCC)[n+]1c(C)cc(C)cc1C.F[B-](F)(F)F [Lipid 25AbO, 1-(1,3-Dioleoyloxypropane-2-yl)-2,4,6-trimethylpyridinium tetrafluoroborate]
Tc (phase transition temperature): 43 °C

CCCCCCCCCCCCCCCC(=O)OCC(C[n+]1c(C)cc(C)cc1C)OC(=O)CCCCCCCCCCCCCCC.[O-][Cl+3]([O-])([O-])[O-] (centres unmarked) [Lipid 21AaP, 1-(2,3-Dipamitoyloxypropyl)-2,4,6-trimethylpyridinium perchlorate]
Tc (phase transition temperature): 106 °C

CCCCCCCCCCCCCCCCCC(=O)OCC(C[n+]1c(C)cc(C)cc1C)OC(=O)CCCCCCCCCCCCCCCCC.[O-][Cl+3]([O-])([O-])[O-] (centres unmarked) [Lipid 21AaS, 1-(2,3-Distearoyloxypropyl)-2,4,6-trimethylpyridinium perchlorate]
Tc (phase transition temperature): 110 °C

CCCCCCCCCCCCCCCC(=O)OCC(COC(=O)CCCCCCCCCCCCCCC)[n+]1c(C)cc(C)cc1C.F[P-](F)(F)(F)(F)F [Lipid 5APal, 1-(1,3-dipamitoyloxypropane-2-yl)-2,4,6-trimethylpyridinium hexafluorophosphate]
Tc (critical temperature), Pure: 75.5 °C
Tc (critical temperature), With cholesterol (1:1 molar ratio): 61.0 °C

CCCCCCCC/C=C\CCCCCCCC(=O)OCC(COC(=O)CCCCCCC/C=C\CCCCCCCC)[n+]1c(C)cc(C)cc1C.[O-][Cl+3]([O-])([O-])[O-] [Lipid 25AaO, 1-(1,3-Dioleoyloxypropane-2-yl)-2,4,6-trimethylpyridinium perchlorate]
Tc (phase transition temperature): 48 °C

CCCCCCCC/C=C\CCCCCCCC(=O)OCC(C[n+]1c(C)cc(C)cc1C)OC(=O)CCCCCCC/C=C\CCCCCCCC.F[B-](F)(F)F (centres unmarked) [Lipid 21AbO, 1-(2,3-Dioleoyloxypropyl)-2,4,6-trimethylpyridinium tetrafluoroborate]
Tc (phase transition temperature): 52 °C

CCCCCCCCCCCCCCCCCC(=O)OCC(C[n+]1c(C)cc(C)cc1C)OC(=O)CCCCCCCCCCCCCCCCC.F[B-](F)(F)F (centres unmarked) [Lipid 21AbS, 1-(2,3-Distearoyloxypropyl)-2,4,6-trimethylpyridinium tetrafluoroborate]
Tc (phase transition temperature): 103 °C

CCCCCCCCCCCCCCCCCC(=O)OCC(C[n+]1c(C)cc(C)cc1C)OC(=O)CCCCCCCCCCCCCCCCC.F[P-](F)(F)(F)(F)F (centres unmarked) [Lipid 3ASte, 1-(2,3-distearoyloxypropyl)-2,4,6-trimethylpyridinium hexafluorophosphate]
Tc (critical temperature), Pure: 122.5 °C
Tc (critical temperature), With cholesterol (1:1 molar ratio): 112.7 °C

CCCCCCCCCCCCCCCCCC(=O)OCC(COC(=O)CCCCCCCCCCCCCCCCC)[n+]1c(C)cc(C)cc1C.F[P-](F)(F)(F)(F)F [Lipid 5ASte, 1-(1,3-distearoyloxypropane-2-yl)-2,4,6-trimethylpyridinium hexafluorophosphate]
Tc (critical temperature), Pure: 79.6 °C
Tc (critical temperature), With cholesterol (1:1 molar ratio): 66.1 °C

CCCCCCCC/C=C\CCCCCCCC(=O)Oc1ccc(CC[n+]2c(C)cc(C)cc2C)cc1OC(=O)CCCCCCC/C=C\CCCCCCCC.F[P-](F)(F)(F)(F)F [Lipid 7AOle, 1-(3,4-dioleoyloxyphenylethyl)-2,4,6-trimethylpyridinium hexafluorophosphate]
Tc (critical temperature), Pure: 106.8 °C
Tc (critical temperature), With cholesterol (1:1 molar ratio): 97.3 °C

CCCCCCCCCCCC(=O)OCC(C[n+]1c(C)cc(C)cc1C)OC(=O)CCCCCCCCCCC.F[P-](F)(F)(F)(F)F (centres unmarked) [Lipid 3ALau, 1-(2,3-dilauroyloxypropyl)-2,4,6-trimethylpyridinium hexafluorophosphate]
Tc (critical temperature), Pure: 114.0 °C
Tc (critical temperature), With cholesterol (1:1 molar ratio): 106.7 °C

CCCCCCCCCC(=O)Oc1ccc(CC[n+]2c(C)cc(C)cc2C)cc1OC(=O)CCCCCCCCC.F[P-](F)(F)(F)(F)F [Lipid 7ACpc, 1-(3,4-didecanoyloxyphenylethyl)-2,4,6-trimethylpyridinium hexafluorophosphate]
Tc (critical temperature), Pure: 140.0 °C
Tc (critical temperature), With cholesterol (1:1 molar ratio): 129.2 °C
